Assay results taken from US10092537B2, “Use for PAI-1 inhibitor” (RENASCIENCE CO., LTD., priority 2013, dated 2018).

Target: human PAI-1 (Homo sapiens, UniProt P05121)
Experiment: Measurement of PAI-1 inhibitory activity of compound group 1 (t-PA, Spectrozyme t-PA chromogenic substrate)
Details: read-out: PAI-1 activity %
Protocol: Subsequently, human-derived tissue plasminogen activator (t-PA) (manufactured by American Diagnostica, Inc. (USA); the same applies hereinafter) adjusted to 0.05 pmol/μL was added thereto, and the mixture was further incubated at 37° C. for 60 minutes. Then, 0.25 mM of Spectrozyme t-PA synthetic substrate (manufactured by American Diagnostica, Inc. (USA); the same applies hereinafter), which is a chromogenic substrate, was added. The final mixture contained 50 mM Tris-HCl (pH 8), 150 mM NaCl, 1% DMSO, 0.1% PEG-6000, 0.2 mM CHAPS, 5 nM PAI-1, 2 nM t-PA, 0.2 mM Spectrozyme t-PA synthetic substrate, and each compound (10 μM or 2.5 μM).
Free radical p-nitroaniline removed from the chromogenic substrate (Spectrozyme t-PA) by t-PA action was measured using a spectrophotometer at an absorbance of 405 nm at 20-minute intervals, for 120 minutes.

Sequence of human PAI-1 (P05121 24-402): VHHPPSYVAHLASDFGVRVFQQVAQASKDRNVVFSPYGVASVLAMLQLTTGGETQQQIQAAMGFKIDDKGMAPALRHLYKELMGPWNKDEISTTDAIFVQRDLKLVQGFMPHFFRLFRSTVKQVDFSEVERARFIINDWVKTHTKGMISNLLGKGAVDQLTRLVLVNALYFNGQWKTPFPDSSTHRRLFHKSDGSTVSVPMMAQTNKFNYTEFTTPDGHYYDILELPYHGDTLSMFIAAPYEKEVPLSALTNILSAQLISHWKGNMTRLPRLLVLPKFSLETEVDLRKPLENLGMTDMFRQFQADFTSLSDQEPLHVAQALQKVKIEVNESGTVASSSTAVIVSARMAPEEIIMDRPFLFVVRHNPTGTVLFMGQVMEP

SMILES	activity at 2.5 µM	activity at 10 µM
CC(C)(C)c1cccc(OCC(=O)Nc2ccc(Cl)cc2C(=O)O)c1 [Example 16, 2-{[(3-tert-butylphenoxy)acetyl]amino}-5-chlorobenzoic acid]	77.4%	21.9%
O=C(COc1ccccc1C1CCCCC1)Nc1ccc(Cl)cc1C(=O)O [Example 17, 5-chloro-2-{[(2-cyclohexylphenoxy)acetyl]amino}benzoic acid]	52.8%	0.8%
O=C(COc1ccc(C23CC4CC(CC(C4)C2)C3)cc1)Nc1ccc(Cl)cc1C(=O)O [Example 21, 2-({[4-(adamantan-1-yl)phenoxy]acetyl}amino)-5-chlorobenzoic acid]	10%	0.3%
O=C(COc1cccc(-c2ccoc2)c1)Nc1ccc(-c2ccccc2)cc1C(=O)O [Example 22, 4-({[3-(furan-3-yl)phenoxy]acetyl}amino)biphenyl-3-carboxylic acid]	29.9%	0.4%
Cn1c(C(=O)Nc2ccc(Cl)cc2C(=O)O)cc2cc(Br)ccc21 [Example 23, 2-{[(5-bromo-1-methyl-1H-indol-2-yl)carbonyl]amino}-5-chlorobenzoic acid]	97.3%	1.8%
O=C(Cn1ccc2cc(Br)ccc21)Nc1ccc(Cl)cc1C(=O)O [Example 24, 2-{[(5-bromo-1H-indol-1-yl)acetyl]amino}-5-chlorobenzoic acid]	102%	19.1%
O=C(COc1cccc(C2=CCCCC2)c1)Nc1ccc(Cl)cc1C(=O)O [Example 25, 5-chloro-2-({[3-(cyclohex-1-en-1-yl)phenoxy]acetyl}amino)benzoic acid]	85.8%	0%
O=C(COc1cccc(C2CCCCC2)c1)Nc1ccc(Cl)cc1C(=O)O [Example 26, 5-chloro-2-{[(3-cyclohexylphenoxy)acetyl]amino}benzoic acid]	98%	0.6%
O=C(COc1ccc(-c2ccoc2)cc1)Nc1ccc(Cl)cc1C(=O)O [Example 29, 5-chloro-2-({[4-(furan-3-yl)phenoxy]acetyl}amino)benzoic acid]	93.2%	24.3%
O=C(COc1cccc(C23CC4CC(CC(C4)C2)C3)c1)Nc1ccc(Cl)cc1C(=O)O [Example 30, 2-({[3-(adamantan-1-yl)phenoxy]acetyl}amino)-5-chlorobenzoic acid]	19.3%	1.3%
O=C(O)c1cc(Cl)ccc1NC(=O)C1CCCN(C(=O)c2cccc(-c3ccccc3)c2)C1 (stereo not drawn) [Example 31, 2-({[1-(biphenyl-3-ylcarbonyl)piperidin-3-yl]carbonyl}amino)-5-chlorobenzoic acid]	88%	20.2%
Cc1ccc(-c2cccc(C(=O)Nc3ccc(Cl)cc3C(=O)O)c2)cc1 [Example 32, 5-chloro-2-{[(4′-methylbiphenyl-3-yl)carbonyl]amino}benzoic acid]	94.4%	1.7%
COc1ccccc1-c1cccc(C(=O)Nc2ccc(Cl)cc2C(=O)O)c1 [Example 33, 5-chloro-2-{[(2′-methoxybiphenyl-3-yl)carbonyl]amino}benzoic acid]	92.8%	21.6%
O=C(CCc1cccc(-c2ccoc2)c1)Nc1ccc(Cl)cc1C(=O)O [Example 36, 5-chloro-2-({3-[3-(furan-3-yl)phenyl]propanoyl}amino)benzoic acid]	95.7%	3.7%
O=C(Nc1ccc(Cl)cc1C(=O)O)c1ccc(C23CC4CC(CC(C4)C2)C3)cc1 [Example 40, 2-({[4-(adamantan-1-yl)phenyl]carbonyl}amino)-5-chlorobenzoic acid]	19.3%	1.7%
O=C(CC(c1ccccc1)c1ccccc1)Nc1ccc(Cl)cc1C(=O)O [Example 41, 5-chloro-2-[(3,3-diphenylpropanoyl)amino]benzoic acid]	72.4%	12.9%
O=C(COc1ccc(C23CC4CC(CC(C4)C2)C3)cc1)Nc1ccc(-c2ccoc2)cc1C(=O)O [Example 47, 2-({[4-(adamantan-1-yl)phenoxy]acetyl}amino)-5-(furan-3-yl)benzoic acid]	9.7%	0.6%
Cn1c(C(=O)Nc2ccc(Cl)cc2C(=O)O)cc2cc(-c3ccccc3)ccc21 [Example 48, 5-chloro-2-{[(1-methyl-5-phenyl-1H-indol-2-yl)carbonyl]amino}benzoic acid]	2.5%	1.7%
Cc1ccc(-c2ccc(OCC(=O)Nc3ccc(Cl)cc3C(=O)O)cc2)cc1 [Example 49, 5-chloro-2-({[(4′-methylbiphenyl-4-yl)oxy]acetyl}amino)benzoic acid]	82.1%	1.1%
Cc1cc(C)cc(-c2ccc(OCC(=O)Nc3ccc(Cl)cc3C(=O)O)cc2)c1 [Example 50, 5-chloro-2-({[(3′,5′-dimethylbiphenyl-4-yl)oxy]acetyl}amino)benzoic acid]	58.9%	0.1%
O=C(Cn1ccc2cc(-c3ccccc3)ccc21)Nc1ccc(Cl)cc1C(=O)O [Example 51, 5-chloro-2-{[(5-phenyl-1H-indol-1-yl)acetyl]amino}benzoic acid]	37.8%	1.7%
O=C(Nc1ccc(Cl)cc1C(=O)O)c1ccc(OCC23CC4CC(CC(C4)C2)C3)cc1 [Example 52, 2-({[4-(adamantan-1-ylmethoxy)phenyl]carbonyl}amino)-5-chlorobenzoic acid]	7.2%	5.1%
O=C(COc1ccc(-c2ccco2)cc1)Nc1ccc(Cl)cc1C(=O)O [Example 54, 5-chloro-2-({[4-(furan-2-yl)phenoxy]acetyl}amino)benzoic acid]	94.4%	15.5%

More lines, now with the values ahead:

activity at 2.5 µM	activity at 10 µM	SMILES
87.3%	3%	O=C(COc1cccc(-c2ccoc2)c1)Nc1ccc(Br)cc1C(=O)O [Example 15, 5-bromo-2-({[3-(furan-3-yl)phenoxy]acetyl}amino)benzoic acid]
81.4%	16.1%	CC(C)(C)c1ccc(OCC(=O)Nc2ccc(Cl)cc2C(=O)O)cc1 [Example 18, 2-{[(4-tert-butylphenoxy)acetyl]amino}-5-chlorobenzoic acid]
72.4%	2.5%	O=C(COc1ccc(-c2ccccc2)cc1)Nc1ccc(Cl)cc1C(=O)O [Example 19, 2-{[(biphenyl-4-yloxy)acetyl]amino}-5-chlorobenzoic acid]
55.7%	1.9%	O=C(COc1cccc(-c2ccccc2)c1)Nc1ccc(Cl)cc1C(=O)O [Example 20, 2-{[(biphenyl-3-yloxy)acetyl]amino}-5-chlorobenzoic acid]
69.1%	0.7%	Cc1cccc(-c2ccc(NC(=O)COc3cccc(-c4ccoc4)c3)c(C(=O)O)c2)c1 [Example 27, 4-({[3-(furan-3-yl)phenoxy]acetyl}amino)-3′-methylbiphenyl-3-carboxylic acid]
33.6%	0.5%	Cc1cc(C)cc(-c2ccc(NC(=O)COc3cccc(-c4ccoc4)c3)c(C(=O)O)c2)c1 [Example 28, 4-({[3-(furan-3-yl)phenoxy]acetyl}amino)-3′,5′-dimethylbiphenyl-3-carboxylic acid]
97.1%	45.1%	O=C(Nc1ccc(Cl)cc1C(=O)O)c1ccc(C2=CCOCC2)cc1 [Example 34, 5-chloro-2-({[4-(3,6-dihydro-2H-pyran-4-yl)phenyl]carbonyl}amino)benzoic acid]
98.8%	15.6%	O=C(O)c1cc(Cl)ccc1NC(=O)C1(c2cccc(-c3ccoc3)c2)CC1 [Example 35, 5-chloro-2-[({1-[3-(furan-3-yl)phenyl]cyclopropyl}carbonyl)amino]benzoic acid]
53.1%	5.9%	CC(C)(C(=O)Nc1ccc(Cl)cc1C(=O)O)c1cccc(-c2ccoc2)c1 [Example 37, 5-chloro-2-({2-[3-(furan-3-yl)phenyl]-2-methylpropanoyl}amino)benzoic acid]
94.8%	2.5%	O=C(O)c1cc(Cl)ccc1NC(=O)c1cccc2c1Cc1ccccc1-2 [Example 38, 5-chloro-2-[(9H-fluoren-1-ylcarbonyl)amino]benzoic acid]
98.6%	3.8%	O=C(Nc1ccc(Cl)cc1C(=O)O)c1ccc(Oc2ccccc2)cc1 [Example 42, 5-chloro-2-{[(4-phenoxyphenyl)carbonyl]amino}benzoic acid]
98.4%	14.1%	O=C(Nc1ccc(Cl)cc1C(=O)O)c1cc(C(F)(F)F)cc(C(F)(F)F)c1 [Example 43, 2-({[3,5-bis(trifluoro-methyl)phenyl)carbonyl}amino)-5-chlorobenzoic acid]
97.8%	20.4%	CC(C)(Oc1cccc(-c2ccoc2)c1)C(=O)Nc1ccc(Cl)cc1C(=O)O [Example 44, 5-chloro-2-({2-[3-(furan-3-yl)phenoxy]-2-methylpropanoyl}amino)benzoic acid]
95.3%	21.6%	O=C(COc1cccc(-c2ccco2)c1)Nc1ccc(Cl)cc1C(=O)O [Example 53, 5-chloro-2-({[3-(furan-2-yl)phenoxy]acetyl}amino)benzoic acid]
29.8%	1.1%	O=C(CCCOc1ccc(C23CC4CC(CC(C4)C2)C3)cc1)Nc1ccc(Cl)cc1C(=O)O [Example 55, 2-({4-[4-(adamantan-1-yl)phenoxy]butanoyl}amino)-5-chlorobenzoic acid]
75.8%	0.7%	O=C(Nc1ccc(Cl)cc1C(=O)O)c1ccc(C(=O)C23CC4CC(CC(C4)C2)C3)cc1 [Example 56, 2-({[4-(adamantan-1-ylcarbonyl)phenyl]carbonyl}amino)-5-chlorobenzoic acid]
